Measured values reported in US9382568B2, “Determining the sensitivity of a cell to a drug” (RANDOX LABORATORIES LTD., priority 2008, dated 2016).

Experiments:
[1] = system: NCTC 13427 (lux+ cdd deficient E. coli MG 1655 expressing human dCK); experiment: Response of bioluminescent bacterial biosensor (growth OD600 and light output); type: cell-based
Text: (§1) Bacterial Strains, Plasmids and Growth Media. E. coli SØ5218 is a cdd-deficient strain expressing the human dCK cDNA on the IPTG-inducible pTrc99-A plasmid. E. coli MG1655 is a derivative of the wild-type E. coli K-12 with a requirement for pyrimidine in minimal medium, due to suboptimal expression of the orotate phosphoribosyltransferase gene coded for by pyrE. Both strains were made self-bioluminescent by transforming them with the broad-host vector pBBR1MCS-2 carrying the luxCDABE cassette from Photorhabdus luminescens as an EcoRI PCR fragment. Luria-Bertani (LB) medium was used for routine culturing of bacteria. The antibiotics ampicillin (to maintain pTrc-A) and kanamycin (to maintain pBBR1MCS-2) were added at 100 and 10 μg/ml, respectively. Growth inhibition experiments were performed in LB RPMI 1640 or in minimal salt medium (AB) plus 0.2% glucose, 0.2% vitamin-free casamino acids and supplemented with thiamine and leucine.
Construction of a cdd-deficient strain of E. coli MG 1655. A library of E. coli MG 1655 strains was constructed using transposition mutagenesis with P1 phage carrying the Tn10 transposon. Mutants carrying the transposon were selected for by plating on tetracycline (10 μg/ml) agar plates and cdd mutants were selected for by plating on to plates containing 10 μg/ml of the analogue 5-fluoro-2′ deoxycytidine which is toxic to E. coli expressing cdd. The phenotype of cdd mutants was confirmed by the absence of cytidine deaminase activity.
In order to measure Ara-C response in a nutrient rich intracellular environment, an alternative cdd-deficient strain of a bioluminescent E. coli MG1655 mutant was constructed using transposon mutagenesis, which was further transformed with pTrc99-A, to give IPTG inducible expression of dCK. […] One possible explanation for the light increase is that the DNA damage caused by Ara-CTP induces bioluminescence that could be used in DNA repair by a photo-reactivation process.
In order to increase the specificity of the proposed assay, direct effects of the active intracellular drug derivative, Ara-CTP, on the bacterial biosensor were monitored (FIG. 3A). […] To verify this, the assay was repeated with the addition of alkaline phosphatase at the start.

E. coli SØ5218 [2] = experiment: Growth of cdd-deficient E. coli mutant SØ5218 expressing human dCK; type: cell-based; details: rich growth medium (data not shown)
Text: Ara-C has no effect on Escherichia coli as it lacks dCK and deaminates Ara-C into Ara-uracil through the activity of deoxycytidine deaminase (cdd). Wang et al., Antimicrob. Agents. […] The Ara-C effect on growth was completely abolished when assayed in the absence of the dCK inducible […], IPTG, indicating human dCK expression in the bacteria leads to Ara-CTP incorporation into bacterial DNA.
as §1, with “leucine. […]” for “leucine.”

KG-1a cells [3] = experiment: Cell lysis assay with bioluminescent reporter bacteria, cell line; type: cell-based; details: KG-1a treated with 25 μM Ara-C, p=0.0001
Experimental: (§2) Cell lines, bone marrow and blood samples. The monocytic cell line KG-1a (DSMZ, Germany) was grown and maintained as a cell suspension in RPMI 1640 medium supplemented with 2 mM L-glutamine and 10% foetal calf serum. Mononuclear cell fractions were isolated from patient peripheral blood or bone marrow samples (n=8) using density gradient centrifugation (SG […]) followed by resuspension in RPMI 1640 medium prior to incubation with Ara-C. Cryopreserved bone marrow samples were thawed and re-suspended in RPMI 1640 medium prior to drug exposure.
(§3) Cell Lysis Assay. AML cell lines or patient derived samples were treated with 25 μM Ara-C for 90 min at 37° C. and 5% CO2, harvested, washed and resuspended in fresh RPMI 1640 medium. EDTA and saponin were added to final concentrations of 1.5 mM and 0.1%, respectively. Samples were then vortexed for 30 sec and cell debris were removed by centrifugation at 1027 g for 5 min. Samples from the lysate or supernatant were mixed with reporter bacteria, 1 mM of IPTG an 10 units of alkaline phosphatase. Bioluminescence and growth (OD600) of the bacteria were monitored in a multimode microplate reader. Sensitivity of AML cell lines or patient derived samples to Ara-C was also assayed using Cell Titer-Glo® Luminescent Cell Viability Assay kit (Promega). […]

KG-1a cells [4] = experiment: Cell Titer-Glo luminescent cell viability (three day cytotoxicity) assay, cell line; type: cell-based; details: 25 μM Ara-C, 72 hours
Experimental: as §2, §3

[5] = system: AML patient derived samples; experiment: Cell Titer-Glo luminescent cell viability (cytotox) assay, patient samples; type: cell-based, human; details: 25 μM Ara-C 72 hours
Experimental: as §2
(§4) Cell Lysis Assay. AML cell lines or patient derived samples were treated with 25 μM Ara-C for 90 min at 37° C. and 5% CO2, harvested, washed and resuspended in fresh RPMI 1640 medium. EDTA and saponin were added to final concentrations of 1.5 mM and 0.1%, respectively. Samples were then vortexed for 30 sec and cell debris were removed by centrifugation at 1027 g for 5 min. Samples from the lysate or supernatant were mixed with reporter bacteria, 1 mM of IPTG an 10 units of alkaline phosphatase. Bioluminescence and growth (OD600) of the bacteria were monitored in a multimode microplate reader. Sensitivity of AML cell lines or patient derived samples to Ara-C was also assayed using Cell Titer-Glo® Luminescent Cell Viability Assay kit (Promega). Samples were treated with 25 μM Ara-C for 72 hours at 37° C. and 5% CO2 before measuring intracellular levels of ATP according to manufacturer's instructions. Paired t-tests were used to analyse significant differences in bioluminescence output between control and treated assay samples.

[6] = system: AML patient derived samples; experiment: Cell lysis assay with bioluminescent reporter bacteria, patient samples; type: cell-based, human; details: for Bioluminescent Assay (sensitive): 25 μM Ara-C 90 min; for Treatment % difference in peak RLU a) L:LI / Treatment % difference in peak RLU b) L:LIP / Treatment % difference in peak RLU c) LI:LIP: drug treated minus control
Experimental: as §2, §4
A representation of light output during the bioluminescent assay for patients who are metabolic sensitive, metabolic resistant, metabolic partially resistant and uptake resistant is shown in FIG. 5.
Table 3 validates the application of the bioluminescent assay using relative percentage differences in peak light output from the various treatments to identify resistant and sensitive patients. Data shown in Table 3 is computed according to the equation {[RLU drug treated sample (LIP/LI)−RLU control (LIP/LI)]×100}, using c) as an example.

AML [7] = experiment: Clinical outcome of AML patients (Ara-C used in induction therapy); type: in vivo, human; set-up: key: NR = No remission; CR = Complete remission
Experimental: The assay was evaluated using a KG-1a cell line and AML samples from patients with known response to Ara-C used in induction therapy. FIG. 6 depicts the light output from the lysate of the Ara-C sensitive cell line KG-1a treated with high (25 μM) Ara-C concentrations. […] The three day cytotoxicity test confirmed that KG-1a cells are sensitive to Ara-C.
The cell lysis assay was applied to clinical samples of peripheral blood ([…]) from AML patients. These preliminary assays, conducted on 7 clinical samples, gave 100% correlation with clinical response to therapy.

E. coli SØ5218 [8] = details: upon expression of human dCK gene (IPTG), Wang et al. 1998; cited from earlier work
Escherichia coli = details: lacks dCK, deaminates Ara-C via cdd; cited from earlier work
AML [9] = experiment: Clinical outcome of AML patients (Ara-C used in induction therapy); type: in vivo, human; set-up: key: NR = No remission; CR = Complete remission; details: Table 2 patient 4, diagnosis M4
[10] = Table 2 patient 1, diagnosis M2
[11] = Table 2 patient 2, diagnosis M4
[12] = Table 2 patient 3, diagnosis M2
[13] = Table 2 patient 4, diagnosis M4
[14] = Table 2 patient 5, diagnosis M4
[15] = Table 2 patient 6, diagnosis M0
[16] = Table 2 patient 7, diagnosis M3

## Nc1ccn([C@@H]2O[C@H](COP(=O)(O)OP(=O)(O)OP(=O)(O)O)[C@@H](O)[C@@H]2O)c(=O)n1 [Ara-CTP]
[1]; Ara-CTP added without alkaline phosphatase, FIG. 3A
  direct entry into reporter bacteria: does not directly enter reporter bacteria
[1]; alkaline phosphatase added at the start, FIG. 3B
  time after which increase in light output was evident: 3 to 5 h
[1]; no alkaline phosphatase added
  time of growth after which increase in light output was observed: at least 15 h

## Nc1ccn([C@@H]2O[C@H](CO)[C@@H](O)[C@@H]2O)c(=O)n1 [Ara-C]
[1]; drug-treated cultures, IPTG present, p=0.0001
  light output (bioluminescence, RLU) of reporter strain: significant increase in light output
[1]; in the presence of Ara-C, induced by IPTG, nutrient rich medium
  growth (OD600) of reporter strain: reduced growth
[1]; low concentrations of Ara-C, FIG. 2
  lowest concentration the bacterial biosensor responds to: 0.05 µM
E. coli SØ5218 [2]
  response of SØ5218: did not respond
KG-1a cells [3]
  light output from IPTG-induced lysate with BAP: significant increase in the light output
  light output from IPTG-induced lysate without BAP: significant increase in the light output
KG-1a cells [4]
  three day cytotoxicity test: sensitive
[5]; [10]
  Cytotox Assay (DLO): 84%
[5]; [11]
  Cytotox Assay (DLO): 99%
[5]; [12]
  Cytotox Assay (DLO): 79%
[5]; [13]
  Cytotox Assay (DLO): 99%
[5]; [14]
  Cytotox Assay (DLO): 62%
[5]; [15]
  Cytotox Assay (DLO): 5%
[5]; [16]
  Cytotox Assay (DLO): 91%
[6]; [10]
  Bioluminescent Assay (sensitive): No
[6]; [11]
  Bioluminescent Assay (sensitive): Yes
[6]; [12]
  Bioluminescent Assay (sensitive): No
[6]; [13]
  Bioluminescent Assay (sensitive): Yes
[6]; [14]
  Bioluminescent Assay (sensitive): No
[6]; [15]
  Bioluminescent Assay (sensitive): No
[6]; [16]
  Bioluminescent Assay (sensitive): No
[6]; Table 3 patient 1
  interaction of the drug with the patient sample (uptake and metabolism category): take up and metabolise the drug
  Treatment % difference in peak RLU a) L:LI: −10.25%
  Treatment % difference in peak RLU b) L:LIP: 19.20%
  Treatment % difference in peak RLU c) LI:LIP: 24.19%
[6]; Table 3 patient 2
  interaction of the drug with the patient sample (uptake and metabolism category): take up and metabolise the drug
  Treatment % difference in peak RLU a) L:LI: −4.00%
  Treatment % difference in peak RLU b) L:LIP: 62.40%
  Treatment % difference in peak RLU c) LI:LIP: 48.03%
[6]; Table 3 patient 3
  interaction of the drug with the patient sample (uptake and metabolism category): takes up but does not metabolise the drug
  Treatment % difference in peak RLU a) L:LI: −81.04%
  Treatment % difference in peak RLU b) L:LIP: −120.00%
  Treatment % difference in peak RLU c) LI:LIP: −4.51%
[6]; Table 3 patient 4, not clinically confirmed
  interaction of the drug with the patient sample (uptake and metabolism category): resistant to take up of the drug
[6]; Table 3 patient 4
  Treatment % difference in peak RLU a) L:LI: 2.28%
  Treatment % difference in peak RLU b) L:LIP: 3.28%
  Treatment % difference in peak RLU c) LI:LIP: 0.88%
[6]; Table 3 patient 5
  Treatment % difference in peak RLU a) L:LI: −61.46%
  Treatment % difference in peak RLU b) L:LIP: −98.39%
  Treatment % difference in peak RLU c) LI:LIP: −13.87%
[6]; Table 3 patient 6
  Treatment % difference in peak RLU a) L:LI: −13.59%
  Treatment % difference in peak RLU b) L:LIP: −7.03%
  Treatment % difference in peak RLU c) LI:LIP: 5.50%
[6]; Table 3 patient 7
  Treatment % difference in peak RLU a) L:LI: −16.37%
  Treatment % difference in peak RLU b) L:LIP: −16.37%
  Treatment % difference in peak RLU c) LI:LIP: 1.20%
AML [7]; [10]
  Clinical Outcome: NR
AML [7]; [11]
  Clinical Outcome: CR
AML [7]; [12]
  Clinical Outcome: NR
AML [7]; [14]
  Clinical Outcome: NR
AML [7]; [15]
  Clinical Outcome: NR
AML [7]; Table 2 patient 7, diagnosis M3 (Remission, death)
  Clinical Outcome: Remission
AML [7]; Table 3 patient 1
  Clinical Outcome: sensitive
AML [7]; Table 3 patient 2
  Clinical Outcome: sensitive
AML [7]; Table 3 patient 3
  Clinical Outcome: resistant
AML [7]; Table 3 patient 7
  Clinical Outcome: resistant
E. coli SØ5218 [8]
  relative growth of SØ5218: reduced relative growth
Escherichia coli
  effect on Escherichia coli: no effect
AML [9]
  Clinical Outcome: CR
